# Columns and labels:
# Cryptosporidium parvum = Cryptosporidium parvum high content microscopy in HCT-8
# 5-HT4 receptor = target: T1, 5-HT4 receptor (Homo sapiens, UniProt Q13639); assay: 5-HT4 radioligand binding; conditions: reference compound
# T1 construct: expressed in transfected cells; host or cells: HeLa
# [1] = set-up: method as in ref WuXi; conditions: WuXi's Acceptance Range For Positive Controls; ref WuXi; cited from earlier work
# [2] = cited from earlier work
# Mycobacterium marinum = assay: M. marinum antibiotic assay; type: cell-based; conditions: 10µM
# Protocol: Columns FA-FC: Soldati Group (data presented first in this paper). M. marinum, D. discoideum, and Acathamoeba castellani assays. Each compound of the Malaria Box has been assayed at 10 µM in all three assays. First, the antibiotic activity was assayed directly against Mycobacterium marinum in its culture medium. Second, the toxicity and growth inhibitory effect of the compounds was assayed against the amoeba Dictyostelium discoideum in its culture medium. Finally, the “in cellulo” anti-infective activity of each compound was tested using the intracellular infection system Acanthamoeba castellanii-M. marinum. Values have been normalized using the DMSO carrier. For each assay, values have been normalized to 1.00 using the DMSO carrier, which has no detectable effect on D. discoideum nor M. marinum growth, while rifabutin was used as positive control for the antibiotic assay and the infection assay, as it abolishes M. marinum growth (normalized value under 0.10) in broth at 10 µM and intracellularly at 30 µM [150].
# [3] = test system: Mycobacterium marinum in Acanthamoeba castellanii; set-up: method as in ref [150] (a number printed in a supplementary file, which may have a reference list of its own: not looked up in the article's list); conditions: 30 µM; ref [150]; cited from earlier work
# M3 receptor = target: T2, M3 receptor (Homo sapiens, UniProt P20309); assay: M3 radioligand binding; conditions: reference compound
# T2 construct: purchased Perkin Elmer
# CYP 2C19 = conditions: cited from earlier work
# Dictyostelium discoideum = conditions: 7.5 µM; ref [150]; cited from earlier work
# T1 sequence (Q13639 whole entry): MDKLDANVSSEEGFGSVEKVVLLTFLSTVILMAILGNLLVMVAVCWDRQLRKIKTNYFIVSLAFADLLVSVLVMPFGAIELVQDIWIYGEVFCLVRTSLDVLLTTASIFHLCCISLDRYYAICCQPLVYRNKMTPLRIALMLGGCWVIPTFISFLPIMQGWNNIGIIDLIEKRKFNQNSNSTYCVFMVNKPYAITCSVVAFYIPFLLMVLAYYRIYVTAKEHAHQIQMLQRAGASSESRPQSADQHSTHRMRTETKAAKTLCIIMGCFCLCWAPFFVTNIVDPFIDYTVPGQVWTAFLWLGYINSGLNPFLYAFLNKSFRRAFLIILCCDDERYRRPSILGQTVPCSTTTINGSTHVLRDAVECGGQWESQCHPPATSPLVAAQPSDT
# T2 sequence (P20309 whole entry): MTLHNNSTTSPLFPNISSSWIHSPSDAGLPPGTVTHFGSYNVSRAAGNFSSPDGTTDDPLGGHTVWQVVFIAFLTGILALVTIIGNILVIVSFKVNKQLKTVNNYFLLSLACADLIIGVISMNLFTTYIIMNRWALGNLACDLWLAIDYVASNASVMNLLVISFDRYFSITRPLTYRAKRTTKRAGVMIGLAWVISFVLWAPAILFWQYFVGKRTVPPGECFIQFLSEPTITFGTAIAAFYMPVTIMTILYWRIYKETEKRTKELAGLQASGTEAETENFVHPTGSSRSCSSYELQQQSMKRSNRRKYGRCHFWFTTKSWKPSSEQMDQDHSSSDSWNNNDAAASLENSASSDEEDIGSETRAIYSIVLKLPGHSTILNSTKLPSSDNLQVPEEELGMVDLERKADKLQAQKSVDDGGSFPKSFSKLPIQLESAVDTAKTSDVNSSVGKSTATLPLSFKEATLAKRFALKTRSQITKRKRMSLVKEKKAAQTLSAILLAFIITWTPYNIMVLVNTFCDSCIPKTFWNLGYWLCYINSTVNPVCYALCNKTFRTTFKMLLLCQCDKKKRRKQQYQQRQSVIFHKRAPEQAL
smiles,measurement,setting,value
O=C(Nc1ccc(Cl)cc1)N1CCN(c2ccc3nncn3n2)CC1 [MMV665917],Selectivity Index C. parvum over mammalian cells,Cryptosporidium parvum,> 20
Cn1cc(C(=O)OCC2CCN(CCNS(C)(=O)=O)CC2)c2ccccc21 [GR113808],Ki,5-HT4 receptor,0.45 nM
NC(=O)N1c2ccccc2C=Cc2ccccc21 [Carbamazepine],Kinetic Solubility pH=7.4,[1],43 ± 4 µg/mL
CC(=O)CC(c1ccccc1)c1c(O)c2ccccc2oc1=O (stereo not drawn) [Warfarin],Plasma Protein Binding Bound% Human,[2],>98%
"CO[C@H]1/C=C/O[C@@]2(C)Oc3c(C)c(O)c4c(c3C2=O)C2=NC3(CCN(CC(C)C)CC3)NC2=C(NC(=O)/C(C)=C\C=C\[C@H](C)[C@H](O)[C@@H](C)[C@@H](O)[C@@H](C)[C@H](OC(C)=O)[C@@H]1C)C4=O [rifabutin, reference compound]",Mycobacterium marinum relative growth DMSO=1 Antibiotic Assay,Mycobacterium marinum,under 0.10
same,"M. marinum intracellular growth, normalized value",[3],under 0.10
O[Si](CCCN1CCCCC1)(c1ccc(F)cc1)C1CCCCC1 (stereo not drawn) [p-F-HHSiD],Ki,M3 receptor,34.4 nM
"CCC1(c2ccccc2)NC(=O)N(Cc2ccccc2)C1=O (single isomer, unassigned; (+)) [(+)-N-3-benzylnirvanol]",CYP 2C19 IC50 Acceptance Range,CYP 2C19,0.100~0.350 μM
CN1CCC[C@H]1c1cccnc1 [Nicotine],"D. discoideum growth, positive control",Dictyostelium discoideum,abolishes its growth

# From PMC4965013, “Open Source Drug Discovery with the Malaria Box Compound Collection for Neglected Diseases and Beyond” (PLoS Pathogens, 2016)
